Results: patent US10669272B2, “Substituted naphthyridinone compounds useful as T cell activators” (BRISTOL-MYERS SQUIBB COMPANY, priority 2018, dated 2020)
Where two headings read alike, the source gives them in different places.

Experiments:
[1] = biological target: T1, human DGKζ (Homo sapiens, UniProt Q13574); assay: DGKζ LIPGLO assay (extruded liposome substrate), in vitro DGK inhibition; type: biochemical; conditions: read-out: DGKz LIPGLO IC50
T1 construct: TVMV protease cleavage site (C); Hexa-His (C); made in house; host or cells: Sf9 insect cells (baculovirus, Bac-to-Bac)

[2] = test system: Human venous whole blood; assay: Human whole blood IFN-γ assay; type: cell-based; conditions: human whole blood, read-out: INFg Whole Blood Normalized Agonist EC50;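 further: blood from healthy donors exposed to compound for 1 h before stimulation with anti-CD3 and anti-CD28 at 1 µg/mL each, IFN-γ quantified in supernatant by AlphaLISA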
Procedure: Human Whole Blood IFN-γ Assay
Human venous whole blood (22.5 μL per well), obtained from healthy donors, was pre-treated with compounds for one hour at 37° C. in a humidified 95% air/5% CO2 incubator. The blood was stimulated with 2.5 μL anti-human CD3 and anti-CD28 mAb at a final concentration of 1 μg/mL each for 24 hours at 37° C. IFN-γ in the supernatants was measured using AlphLISA kit (Cat # AL217).

[3] = biological target: T2, human DGKα (Homo sapiens, UniProt P23743); assay: DGKα LIPGLO assay (extruded liposome substrate), in vitro DGK inhibition; type: biochemical; conditions: read-out: DGKa LIPGLO IC50
T2 construct: TVMV protease cleavage site (C); Hexa-His (C); made in house; host or cells: Sf9 insect cells (baculovirus, Bac-to-Bac)

[4] = Homo sapiens, 24 h, normalized to 3 μM reference compound with anti-CD3 plus anti-CD28 as 100% activation
[5] = normalized to 3 μM reference compound with anti-CD3 plus anti-CD28 as 100% activation
[6] = Homo sapiens, 24 h, anti-CD3 plus anti-CD28, 24 hours, 3 μM reference compound = 100% activation
[7] = anti-CD3 plus anti-CD28, 24 hours, 3 μM reference compound = 100% activation

T1 sequence (Q13574 with tags, fused parts or gaps isoform Q13574-4): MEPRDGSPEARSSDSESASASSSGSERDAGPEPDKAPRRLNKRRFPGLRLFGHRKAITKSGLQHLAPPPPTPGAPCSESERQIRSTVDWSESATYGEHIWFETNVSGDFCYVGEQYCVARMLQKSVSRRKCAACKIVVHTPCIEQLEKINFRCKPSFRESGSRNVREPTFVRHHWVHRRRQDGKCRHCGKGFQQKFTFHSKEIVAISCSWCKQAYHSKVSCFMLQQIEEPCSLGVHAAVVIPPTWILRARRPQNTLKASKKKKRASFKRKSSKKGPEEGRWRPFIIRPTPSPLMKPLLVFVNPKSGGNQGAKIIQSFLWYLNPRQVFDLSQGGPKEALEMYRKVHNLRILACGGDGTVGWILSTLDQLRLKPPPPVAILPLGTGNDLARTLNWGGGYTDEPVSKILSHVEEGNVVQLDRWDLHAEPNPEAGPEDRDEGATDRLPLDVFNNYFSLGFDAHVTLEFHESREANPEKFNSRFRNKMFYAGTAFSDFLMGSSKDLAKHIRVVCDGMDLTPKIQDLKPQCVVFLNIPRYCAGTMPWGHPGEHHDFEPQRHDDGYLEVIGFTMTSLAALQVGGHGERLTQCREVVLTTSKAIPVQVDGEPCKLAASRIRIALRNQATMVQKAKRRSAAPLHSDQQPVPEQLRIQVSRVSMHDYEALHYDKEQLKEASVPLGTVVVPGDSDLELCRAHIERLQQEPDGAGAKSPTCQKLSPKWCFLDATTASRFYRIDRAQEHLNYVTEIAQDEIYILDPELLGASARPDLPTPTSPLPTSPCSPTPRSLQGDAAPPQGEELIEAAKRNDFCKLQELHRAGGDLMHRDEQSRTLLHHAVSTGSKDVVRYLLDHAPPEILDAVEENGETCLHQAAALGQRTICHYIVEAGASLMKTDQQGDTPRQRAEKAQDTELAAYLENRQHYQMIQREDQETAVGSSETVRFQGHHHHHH
T2 sequence (P23743 with tags, fused parts or gaps): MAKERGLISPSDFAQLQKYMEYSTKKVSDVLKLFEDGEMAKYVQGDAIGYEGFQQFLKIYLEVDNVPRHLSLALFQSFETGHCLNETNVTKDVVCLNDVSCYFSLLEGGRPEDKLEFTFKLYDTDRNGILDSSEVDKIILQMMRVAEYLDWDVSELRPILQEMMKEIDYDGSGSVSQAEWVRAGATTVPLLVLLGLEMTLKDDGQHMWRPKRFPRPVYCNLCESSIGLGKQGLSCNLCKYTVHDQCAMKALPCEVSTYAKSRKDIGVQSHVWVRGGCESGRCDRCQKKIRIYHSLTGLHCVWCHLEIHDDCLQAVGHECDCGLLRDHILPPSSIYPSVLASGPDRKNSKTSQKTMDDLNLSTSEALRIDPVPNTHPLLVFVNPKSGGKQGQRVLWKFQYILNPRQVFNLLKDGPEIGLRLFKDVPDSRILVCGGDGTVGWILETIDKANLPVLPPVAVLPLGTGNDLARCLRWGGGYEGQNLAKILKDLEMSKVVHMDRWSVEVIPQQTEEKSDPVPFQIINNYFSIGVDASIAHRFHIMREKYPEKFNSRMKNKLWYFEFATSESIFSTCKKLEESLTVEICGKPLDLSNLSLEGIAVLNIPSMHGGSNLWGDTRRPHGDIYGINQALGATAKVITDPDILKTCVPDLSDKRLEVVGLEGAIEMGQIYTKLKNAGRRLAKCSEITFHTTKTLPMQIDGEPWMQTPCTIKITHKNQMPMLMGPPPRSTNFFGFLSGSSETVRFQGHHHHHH

SMILES	IC50 ([1]; liposome (LIPGLO) assay) [nM]	EC50 [2, 4] [nM]	IC50 ([3]; liposome (LIPGLO) assay) [nM]	EC50 [2, 5] [nM]	IC50 ([1]; DGKζ liposome (LIPGLO) assay) [nM]	EC50 [2, 6] [nM]	IC50 ([3]; DGKα liposome (LIPGLO) assay) [nM]	EC50 [2, 7] [nM]
CC(c1ccc(C2(C#N)CC2)cc1F)N1C[C@H](C)N(c2cc(=O)n(C)c3ccc(C#N)nc23)C[C@H]1C (single isomer, unassigned) [Example 1252]	3100	7700	5700					
CC[C@H]1CN(C(c2ccc(F)cc2)c2ccc(C(F)(F)F)cn2)[C@H](CC)CN1c1cc(=O)n(C)c2ccc(C#N)nc12 (stereo partly drawn) [Example 1040]	59		42	57				
CC(c1cccc2ncccc12)N1C[C@H](C)N(c2cc(=O)n(C)c3ccc(C#N)nc23)C[C@H]1C (single isomer, unassigned) [Example 638]	1800	20000	110000					
CC[C@H]1CN(C(c2ccc(F)cc2)c2cocn2)[C@H](CC)CN1c1cc(=O)n(C)c2ccc(C#N)nc12 (single isomer, unassigned) [Example 1068]	92		43	250				
C[C@@H]1CN(c2cc(=O)n(C)c3ccc(C#N)nc23)[C@@H](C)CN1Cc1ccc(OC(F)(F)F)cc1Cl [Example 607]	7600	2000	1900					
CCC(c1ccc(OCCC2CC2)cc1)N1C[C@H](C)N(c2cc(=O)n(C)c3ccc(C#N)nc23)C[C@H]1C (single isomer, unassigned) [Example 1446]	230		260	230				
CC(c1ccc(C(F)(F)F)cc1)N1CCN(c2c(C#N)c(=O)n(C)c3ccc(C#N)nc23)C[C@H]1C (single isomer, unassigned) [Example 960]					6600	20000	6700	
CC[C@H]1CN(C(C)c2ccc(F)cc2)[C@H](CC)CN1c1cc(=O)n(C)c2ccc(C#N)nc12 (single isomer, unassigned) [Example 1049]	42		15	130				
CC(c1ccc(Br)cc1)N1CCN(c2c(C#N)c(=O)n(C)c3ccc(C#N)nc23)C[C@H]1C (single isomer, unassigned) [Example 974]					7600	20000	1100	
CC(c1ccc(OC(F)(F)F)cc1)N1CCN(c2c(C#N)c(=O)n(C)c3ccc(C#N)nc23)C[C@H]1C (single isomer, unassigned) [Example 962]					> 250000		1500	20000
C[C@@H]1CN(c2c(F)c(=O)n(C)c3ccc(C#N)nc23)[C@@H](C)CN1C(c1ccc(F)cc1)c1c(F)cccc1F (single isomer, unassigned) [Example 329]	4500		3600	13000				
CC(c1c(F)cccc1F)N1CCN(c2c(C#N)c(=O)n(C)c3ccc(C#N)nc23)C[C@H]1C (single isomer, unassigned) [Example 951]					9800		3700	20000
CC(c1ccc(C2(C#N)CC2)cc1)N1C[C@H](C)N(c2cc(=O)n(C)c3ccc(C#N)nc23)C[C@H]1C (stereo partly drawn) [Example 1254]	340		1900	1800				
CC[C@@H]1CN(c2cc(=O)n(C)c3ccc(C#N)nc23)[C@@H](C)CN1C(c1ccc(C)cc1)c1ccc(C)cc1 [Example 1098]	300	150	570					
C[C@@H]1CN(c2cc(=O)n(C)c3ccc(C#N)nc23)[C@@H](C)CN1C(c1ccc(F)cc1)C(C)(C)O (single isomer, unassigned) [Example 1308]	2200		20000	2100				
C[C@@H]1CN(c2c(F)c(=O)n(C)c3ccc(C#N)nc23)[C@@H](C)CN1C(c1ccc(F)cc1)c1ccccc1F (stereo partly drawn) [Example 334, 7-fluoro-8-((2S,5R)-4-((2-fluorophenyl)(4-fluorophenyl)methyl)-2,5-dimethylpiperazin-1-yl)-5-methyl-6-oxo-5,6-dihydro-1,5-naphthyridine-2-carbonitrile]	560		500	1900				

SMILES	IC50 ([1]; liposome (LIPGLO) assay) [nM]	EC50 [2, 4] [nM]	IC50 ([3]; liposome (LIPGLO) assay) [nM]	EC50 [2, 5] [nM]	IC50 ([1]; DGKζ liposome (LIPGLO) assay) [nM]	EC50 [2, 6] [nM]	IC50 ([3]; DGKα liposome (LIPGLO) assay) [nM]	EC50 [2, 7] [nM]
Cc1cc(C(C)N2C[C@H](C)N(c3cc(=O)n(C)c4ccc(C#N)nc34)C[C@H]2C)ccc1F (stereo partly drawn) [Example 1255]	2000	2900	3100					
C[C@@H]1CN(c2cc(=O)n(C)c3ccc(C#N)nc23)[C@@H](C)CN1C(c1ccc(O)cc1)C(F)(F)F (stereo partly drawn) [Example 626]	7900	2500	1700					
C[C@@H]1CN(c2c(C#N)c(=O)n(C)c3ccc(C#N)nc23)CCN1Cc1cccc(C(F)(F)F)c1 [Example 1003]					3900	20000	2800	
C[C@@H]1CN(c2c(C#N)c(=O)n(C)c3ccc(C#N)nc23)CCN1Cc1ccc(Cl)c(Cl)c1 [Example 996]					5800	20000	4100	
Cc1ccc(C(c2ccc(F)cn2)N2CCN(c3c(C#N)c(=O)n(C)c4ccc(C#N)nc34)C[C@H]2C)cc1 (stereo partly drawn) [Example 899]					1700		630	990
CC(c1ccc(OC(F)(F)F)cc1)N1C[C@H](CO)N(c2cc(=O)n(C)c3ccc(C#N)nc23)C[C@H]1C (single isomer, unassigned) [Example 1419]	680	1100	75					
C[C@@H]1CN(c2cc(=O)n(C)c3ccc(C#N)nc23)[C@@H](C)CN1C(c1ccc(F)cc1)c1nccs1 (single isomer, unassigned) [Example 711]	3600	1700	69					
Cc1ccnc(C(c2ccc(F)cc2)N2C[C@H](C)N(c3cc(=O)n(C)c4ccc(C#N)nc34)C[C@H]2C)c1 (single isomer, unassigned) [Example 456]	1000		230	1100				
CC[C@H]1CN(C(C)c2ccc(OC(F)(F)F)cc2)[C@H](C)CN1c1cc(=O)n(C)c2ccc(C#N)nc12 (single isomer, unassigned) [Example 1141]	370		8.3	470				
CCC(c1ccc(OC(F)(F)F)cc1)N1C[C@H](C)N(c2cc(=O)n(C)c3ccc(C#N)nc23)C[C@H]1CC (single isomer, unassigned) [Example 1198]	1100		990	1700				
CCC(c1ccc(C2CC2)cc1F)N1C[C@H](CC)N(c2cc(=O)n(C)c3ccc(C#N)nc23)C[C@H]1CC (single isomer, unassigned) [Example 1360]	110		830	700				
C[C@@H]1CN(c2c(C#N)c(=O)n(C)c3ccc(C#N)nc23)[C@@H](C)CN1C(c1ccc(F)cc1)c1ncccc1F (single isomer, unassigned) [Example 820]					2000	2200	920	
CC[C@@H]1CN(c2cc(=O)n(C)c3ccc(C#N)nc23)[C@@H](C)CN1C(C)c1ccc(OC)cc1 (single isomer, unassigned) [Example 1351]	780		1100	740				
C[C@@H]1CN(c2cc(=O)n(C)c3ccc(C#N)nc23)[C@@H](C)CN1C(c1ccc(Br)cc1)c1nc(C2CC2)no1 (stereo partly drawn) [Example 760]					22		70	48
CC(C)c1ccc(C(C)N2C[C@H](C)N(c3cc(=O)n(C)c4ccc(C#N)nc34)C[C@H]2C)cc1 (single isomer, unassigned) [Example 1234]	1400		2200	5400				
